In assay [1] the target is T1, KRAS (G12C) (Homo sapiens, UniProt P01116, G12C).
T1 construct: purchased BPS Bioscience 79859
Kind of assay: KRAS G12C Nucleotide Exchange Assay (fixed GTP concentration). It is filed as biochemical. The settings on record: KRAS (G12C) labeled with BODIPY-GDP; fixed GTP concentration; 2 hours compound incubation; fluorescence readout; read-out: IC50. The protocol:
A KRAS (G12C) Nucleotide Exchange Assay kit was used to evaluate compound antagonistic binding. The assay kit (BPS Bioscience. Catalog #79859) utilizes KRAS (G12C) labeled with BODIPY-GDP to determine if compounds can affect the nucleotide exchange (GDP to GTP) in KRAS signaling, Compounds were typically characterized using both protocols: fixed GTP concentrations and fixed inhibitor concentrations.
All reagents were prepared following manufacturer's protocol. 5 μL BODIPY-GDP and 10 μL of KRAS buffer were added to each well. A 3-fold serial dilution of compound in 5% DMSO was prepared. Typically, compounds were tested in the range of 0 μM to 50 μM, but the range could be modified depending on the characterization needs. 5 μL of diluted compound was added to the wells and the plate was centrifuged briefly to ensure all components were mixed before incubation at ambient temperature. After incubation for 2 hours, 10 μM GTP and 25 mM EDTA were mixed at a 1:1 ratio and 5 μL was added to the wells. The plate was then incubated for 1 hour at ambient temperature. After incubation, fluorescence was measured at […].
Data was analyzed by plotting fluorescence vs GTP concentration for control wells and compound wells.

Assay [2] has as its system human ERK1 dually phosphorylated at T202/Y204 and ERK2. Description: Phosphorylated ERK1/ERK2 ELISA. The settings on record: phosphorylated ERK in cell lysates after treatment with compounds; sandwich ELISA; cell line not stated. Format: cell-based. The protocol: An ERK phosphorylation ELISA kit was used to characterize compounds for KRAS-based cell activity. The sandwich ELISA (RnD Systems. Catalog #DYC1018B) measures human ERK1 that is dually phosphorylated at T202/Y204 and ERK2. Cell lysates from cells before and after treatment with compounds were prepared using kit manufacturer protocols.
All reagents were prepared following the kit's protocol. The wells of a 96-well microtiter plate were coated with 100 μL of 8.0 μg/mL of capture antibody in PBS. The plate was sealed and left to incubate overnight at ambient temperature. After incubation, the wells were washed with 400 μL of Wash Buffer for a total of 3 washes. Wells were then blocked by adding 300 μL of Block Buffer to each well and incubated at ambient temperature for 1-2 hours. After removal of the Block Buffer by aspirating and washing, 100 μL of standards and samples were added to the plate in duplicates and incubated for 2 hours at ambient temperature. The aspiration and wash steps were repeated to remove unbound standard and samples and 100 μL of 400 ng/mL detection antibody was applied to each well. After 2 hours at ambient temperature, detection antibody was removed by washing and 100 μL of Streptavidin-HRP was added to each well. Incubation of Streptavidin-HRP was at ambient temperature for 20 minutes, after which Streptavidin-HRP was removed by washing, 100 μL of Substrate Solution was added to each well and incubated for 20 minutes before 50 μL of Stop Solution was added to each well.
The optical density of each well was immediately analyzed at 450 nm with a wavelength correction at 540 nm. The standards were plotted by averaging the optical density for each replicate and fitted with a four-parameter logistic curve fit. Concentrations of phosphorylated ERK in cell lysate samples were determined by extrapolation from the standard curve and then adjusted for any dilution factors.
On the technique in general: An ELISA detects its analyte on a solid surface through an enzyme-linked reagent.

T1 sequence (P01116 1-188 isoform P01116-2 G12C): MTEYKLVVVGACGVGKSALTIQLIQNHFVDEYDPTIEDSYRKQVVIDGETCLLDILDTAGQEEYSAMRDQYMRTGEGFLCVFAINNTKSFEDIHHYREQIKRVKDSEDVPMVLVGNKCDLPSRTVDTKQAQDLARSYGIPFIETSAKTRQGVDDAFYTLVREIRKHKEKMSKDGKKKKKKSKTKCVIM

Consider `C=CC(=O)N1CCN(c2nc(OC[C@@H]3CCCN3CCNC(=O)CN3CCN4CCN5CCN(CC3)CC(=O)[O][Lu]([O]C(=O)C4)[O]C(=O)C5)nc3c2CCN(c2cccc4cccc(Cl)c24)C3)C[C@@H]1CC#N` [Lu-CHL-002, N-[2-[(2S)-2-[[7-(8-chloro-1-naphthyl)-4-[(3S)-3-(cyanomethyl)-4-prop-2-enoyl-piperazin-1-yl]-6,8-dihydro-5H-pyrido[3,4-d]pyrimidin-2-yl]oxymethyl]pyrrolidin-1-yl]ethyl]-2-(3,16,19-trioxo-2,17,18-trioxa-5.8,11,14-tetraza-1λ3-lutetatricyclo[9.6.3,25,14]docosan-8-yl)acetamide], for which the half-inhibitory concentration (IC50) in assay [1] and in assay [2] was 1 to 10 µM throughout.

As a reminder, the IC50 is the concentration needed to halve the response being measured.

For the origin of these results see US20240252694A1, “CONJUGATES COMPRISING COVALENT BINDERS FOR TARGETING INTRACELLULAR KRAS G12C PROTEINS” (RayzeBio, Inc., priority 2021, published 2024).
